Test results as given in PMC2736375, “Solution Behavior and Activity of a Halophilic Esterase under High Salt Concentration” (PLoS ONE, 2009).

Biological target: T1, LipC (Haloarcula marismortui, UniProt Q5V5N6)
T1 construct: full-length, N- and C-terminal 6xHis tags, pET28a (NheI/HindIII), E. coli BL21(DE3); theoretical 34 kDa, ~50 kDa on SDS-PAGE; no signal peptide; catalytic triad Ser128, Asp224, His254; active as free monomers, mixed aggregates
T1 sequence (Q5V5N6 1-327): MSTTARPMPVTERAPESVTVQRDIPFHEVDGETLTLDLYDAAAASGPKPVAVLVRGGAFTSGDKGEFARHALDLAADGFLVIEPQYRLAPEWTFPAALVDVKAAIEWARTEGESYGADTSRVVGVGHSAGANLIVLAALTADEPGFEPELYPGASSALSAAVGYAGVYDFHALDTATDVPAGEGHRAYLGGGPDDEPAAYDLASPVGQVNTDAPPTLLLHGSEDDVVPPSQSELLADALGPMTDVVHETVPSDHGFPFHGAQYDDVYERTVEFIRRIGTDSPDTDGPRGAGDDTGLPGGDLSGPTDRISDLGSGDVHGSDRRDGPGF
Experiment: p-nitrophenol release at […] nm
Assay type: biochemical
Conditions: 0.5 mM substrate, 50 mM Tris-HCl pH 8.5, 45 °C, 3.4 M NaCl

Structure (SMILES)	p-nitrophenol release at 405 nm
CC(=O)Oc1ccc([N+](=O)[O-])cc1 [p-NP-C2, p-nitrophenyl acetate]	The highest specific activity of LipC was found towards the short chain p-nitrophenyl esters
CCC(=O)Oc1ccc([N+](=O)[O-])cc1 [p-NP-C3]	short chain p-nitrophenyl esters of p-NP-C2 and p-NP-C3
